Measurements: US20250281453A1, “COMBINATION THERAPIES COMPRISING QTX125” (QUIMATRYX, S.L., priority 2022, published 2025)

Assays:
Type in all cases: cell-based
[1] = test system: HCT-116 colonic cancer cells; assay: QTX125-containing combination therapy, hexosaminidase cell viability; settings: for combination index (C.I.): HCT-116; for EC50: Homo sapiens, HCT-116, HCT-116
Procedure: To assess the oncolytic efficacy of QTX125-containing combination therapies in vitro, colonic, pancreatic, hepatic and ovarian tumour cells were administered sorafenib, gemcitabine or bortezomib at EC25, EC50 and EC75 doses. QTX125 was co-administered in order to produce a dose response curve.
(§1) To prepare cells for viability assays, cells were transferred into 96 well tissue culture plates (Cultek), and resuspended in 100 µL at the following densities: 10,000 cells/well (Hep-G2 and MiaPaCa-2), 5000 cells/well (Panc-1 and SK-OV-3) or 3000 cells/well (HCT-116). Following 24 hours of incubation, media was removed and replaced with 100 µL media spiked with QTX125 and the test chemotherapeutic agents. Stock solutions for the agents used in this study are shown below in Table 1. Cells were incubated for a further 72 hours before cell viability was assessed using both ALAMAR® and hexosaminidase assays.
For the hexosaminidase assay, media containing QTX125 and the test chemotherapeutic agents was removed, and cells were washed once with PBS. 60 μL of substrate solution (containing: 7.5 mM p-nitrophenol-N-acetyl-beta-D-glucosamide [Sigma N-9376], 0.1 M sodium citrate, pH 5.0 and 0.25% Triton X-100) was added to each well and cells were incubated at 37° C. for at least 1 hour. Incubating cells in this manner causes the substrate solution to become bright yellow, at which point 90 μL of developer solution (containing 50 mM Glycine pH 10.4 and 5 mM EDTA) was added to each well. Absorbance at 410 nm was recorded using a plate reader.
(§2) Control values were normalised to 100% and percentage (%) viability was calculated. Data were used to plot log dose-response curves using a sigmoid dose-response (variable slope) equation. EC50 values were obtained using Equation 1, where ‘X’ is the logarithmic concentration; ‘Y’ is the response output and it is assumed that Y starts at bottom of the graph and reaches the top with an overall sigmoid shape.
Cls were obtained using Equation 2, where (Dm) 1 is the ECx concentration of QTX125 and (D) 1 is the ECx concentration of QTX125 in the presence of sorafenib, gemcitabine or bortezomib.
In order to assess the oncolytic efficacy of QTX125-containing combination therapies, monotherapy EC25, EC50 and EC75 doses for sorafenib, gemcitabine and bortezomib were calculated (as per Experiment 3) and administered to wells at these fixed concentrations. QTX125 was co-administered at a range of concentrations, in order to plot a dose-response curve such that the EC50 dose of QTX125 could be calculated in the presence of sorafenib/gemcitabine/bortezomib. QTX125 was administered to cells at a starting high-dose, and a 1:1 dilution was completed thereafter. In this part of the study, only the hexosaminidase assay was employed to assess cell viability following treatment with QTX125-containing combination therapies.
It should be noted that it was not possible to determine the appropriate concentrations for gemcitabine in all cell lines tested. In cells resistant to gemcitabine, nominal concentrations were used in place of EC25, EC50 and EC75 doses (e.g., nominal doses of 1, 10 and 100 µM were used in Panc-1 and Hep-G2 cells).

[2] = test system: Panc-1 pancreatic cancer cells; assay: Cell viability, ALAMAR blue assay, monotherapy
Procedure: (§3) In brief, HCT-116, MiaPaCa-2 and Panc-1 cells were thawed in high glucose DMEM (Sigma D5796) with 10% heat-inactivated Foetal Calf Serum (FCS) (PAA, A15-101)). Hep-G2 and SK-Hep1 cells were thawed in Minimum Essential Media (MEM) (Sigma M2279) with 1% non-essential amino acids (Sigma M7145), 2 mM Glutamine (Sigma G7513) and 10% FCS. SK-OV-3 cells were thawed in McCoy's 5A medium (Sigma, M8403) with 15% FCS. All cells were passaged by washing once in cation-free dPBS (Sigma, D1408), and incubated for 3 minutes with trypsin ([0.5 μg/ml]/EDTA [0.2 μg/ml] (Sigma, T4174) in dPBS). Passage was completed at 37° C., and cells were transferred to the appropriate media. Prior to seeding at defined cell density, cells were recovered in medium, centrifuged and resuspended for counting.
as §1
(§4) For the ALAMAR® blue assay, media containing QTX125 and the test chemotherapeutic agents was removed, and cells were stained using ALAMAR® blue (BioSource DAL 1100) for 4 hours at 37° C., following the manufacturer's instructions. Relative fluorescent intensity was measured using a Cytofluor® plate reader (Millipore) at 535/590 nm (Excitation/emission). This measure directly correlates with the number of viable cells present in each well.
(§5) A number of appropriate control samples were included. First, absorbance values measured in reagent ‘blank’ wells (containing cell culture medium and colorimetric agent only) were subtracted from ‘test’ sample-containing wells. ‘Blank’ absorbance values were routinely between 5 and 10% of the values recorded in test wells. Absorbance values recorded in test wells were then compared against wells containing (i) cells stimulated with QTX125 only; (ii) cells stimulated with sorafenib, gemcitabine or bortezomib only and/or (iii) unstimulated cells, as appropriate.
as §2
(§6) Prior to assessing the oncolytic efficacy of QTX125-containing combination therapies, the oncolytic effect of each test agent was assessed in isolation. Dose-response curves were produced by serial dilution (1:1), thereby allowing monotherapy EC50 values to be calculated.
(§7) Chemotherapeutic agents were added to wells at a starting concentration of 100 μM. However, it was quickly determined that it was not possible to use this range for all chemotherapeutic agents tested. An optimization study was therefore completed to identify suitable maximum (‘high’) doses for each agent and in each individual cell line.

[3] = test system: HCT-116 colonic cancer cells; assay: Cell viability, ALAMAR blue assay, monotherapy
Procedure: as §3, §1, §4, §5, §2, §6, §7

[4] = + bortezomib at EC25 dose (0.005 μM)
[5] = + bortezomib at EC50 dose (0.007 μM)
[6] = + bortezomib at EC75 dose (0.01 μM)
[7] = + gemcitabine at EC25 dose (0.001 μM)
[8] = + sorafenib at EC25 dose (2 μM)
[9] = + sorafenib at EC50 dose (3.6 μM)
[10] = + sorafenib at EC75 dose (6.5 μM)
[11] = Homo sapiens, 72 h, read-out: EC50 dose of monotherapy

EC50 [2, 11]: 1400 ± 150 nM
EC50 [3, 11]: 330 nM
SMILES: O=C(NO)c1ccc(CNC(=O)c2[nH]c(-c3ccc(O)cc3)cc2-c2ccoc2)cc1 [QTX125, 3-(3-Furyl)-N-{4-[(hydroxyamino)carbonyl]benzyl}-5-(4-hydroxyphenyl)-1 Hpyrrole-2-carboxamide]
combination index (C.I.) [1, 4]: 1.0 arbitrary units
combination index (C.I.) [1, 5]: 1.1 arbitrary units
combination index (C.I.) [1, 6]: 0.9 arbitrary units
combination index (C.I.) [1, 7]: 1.1 arbitrary units
combination index (C.I.) [1, 8]: 0.9 arbitrary units
combination index (C.I.) [1, 9]: 0.9 arbitrary units
combination index (C.I.) [1, 10]: 0.9 arbitrary units
EC50 [1, 4]: 2460 nM
EC50 [1, 5]: 2540 nM
EC50 [1, 6]: 2140 nM
EC50 [1, 7]: 322 nM
EC50 [1, 8]: 2350 nM
EC50 [1, 9]: 2210 nM
EC50 [1, 10]: 2260 nM
EC50 ([1]; no second agent (control of Table 5.1.1)): 2590 nM
EC50 ([1]; no second agent (control of Table 5.1.2)): 305 nM
EC50 ([1]; no second agent (control of Table 5.1.3)): 2360 nM
percentage (%) cell viabilities ([2]; 72 hours of high-dose monotherapy (Table 2: QTX125 100, sorafenib 100, gemcitabine 100, bortezomib 1 μM)): 0.0%
percentage (%) cell viabilities ([3]; 72 hours of high-dose monotherapy (Table 2: QTX125 1, sorafenib 100, gemcitabine 10, bortezomib 1 μM)): 0.0%
